Type in all cases: in vivo, mouse
The test system of one assay is C57BL/6J mice. Briefly: Blood count recovery after myelosuppressive 5FU chemotherapy. The protocol:
The inventors used 5FU (250 mg/kg, 1 i.p.) for C57BL/6J mice, or 5FU 150 mg/kg (1 i.p.) for mice that had been previously transplanted. To assess blood count recovery, the inventors collected peripheral blood (50 μl) into EDTA-coated capillary tubes (Fisher Scientific). Differential blood counts were measured using an automated Bayer ADVIA 120 Multispecies Hematology Analyzer calibrated for murine blood (Bayer HealthCare).
The inventors treated cohorts of mice with 5FU (250 mg/kg) on day 0 and then with either the TGFβ-neutralizing antibody 1D11 (I) (10 mg/kg) or a non-targeted control antibody 13C4 (C) (10 mg/kg) on days 5, 7 and 9. The 1D11 and 13C4 antibodies were generously provided by Genzyme Corp., Framingham, Mass., USA. Mice were treated with 5FU (250 mg/kg) on day 0 and then received either LY364947 (1 mg/kg, i.p.) or an equal volume of PBS six times over a period of 9 days. Hematopoietic reconstitution was followed by monitoring peripheral blood counts and multidimensional flow cytometry on bone marrow and spleen cells, as indicated.

A further assay deals with LKS+ HSPCs. Briefly: Multidimensional flow cytometry of BM HSPC regeneration after 5FU. The settings on record: 1 mg/kg IP 6 times over 9 days, vs control. The protocol: (§1) Mice were killed by CO2 asphyxiation and femur, tibia and humeri were dissected free of muscle and tendons and then crushed in DMEM using a mortar and pestle. The resulting cell suspension was filtered through a 70-μm filter and washed in PEB (2 mM EDTA, 0.2% BSA in PBS pH 7.4). Spleens were isolated and then minced prior to grinding through a 70-μm filter to generate single cell suspensions. Lineage negative (Lin^−) cells were purified using a biotinylated lineage cell detection cocktail (Miltenyi Biotec). Lineage depleted cells were then stained with streptavidin-Qdot 605 (eBioscience), Horizon V450-conjugated anti-CD117 (BD Biosciences), PECy7-conjugated Sca-1 (BioLegend), Alexa700-conjugated CD34 (BD Biosciences), APC-conjugated CD135 (Flk2) (BioLegend), and PerCP/Cy5.5-conjugated CD16/32 (FcR). Hematopoietic populations were identified as following: LT-HSCs, LKS^+ CD34^−Flk2^−; ST-HSCs, LKS^+ CD34^+ Flk2^−; MPPs, LKS^+ CD34^+ Flk2^+; CMPs, LKS^− CD34^+ FcRlow; GMPs, LKS^− CD34^+ FcR^+; and MEPs, LKS^− CD34^− FcR^− MEPs. DAPI was used to exclude dead cells during flow cytometric analysis. […] The cell cycle status of LKS^+SLAM cells was analyzed using this same strategy. Analysis gates were set based upon the fluorescence minus one (FMO) fluorophore. […]
On the technique in general: In flow cytometry, cells or beads pass a laser one at a time.

The subject of assay [1] is LKS+ HSPCs and LKS+SLAM cells. Briefly: Bi-dimensional cell cycle analysis of BM HSPCs after 5FU. The settings on record: D15 after 5FU, 1 mg/kg IP 6 times over 9 days; vs 5FU only. The protocol:
as §1

Where [2] appears, read: 5FU 250 mg/kg D0, 1 mg/kg IP 6 times over 9 days, vs PBS.

Entries after “also recorded” stand apart in the source; their conditions may differ.

As to `c1ccc(-c2[nH]ncc2-c2ccnc3ccccc23)nc1` [LY364947], in the assay on C57BL/6J mice (setting [2]), the PLT recovery entry is given as “faster” and the WBC recovery entry was “faster”. Further, in the assay with C57BL/6J mice (after 5FU, vs vehicle control), the blood counts recovery entry is reported as “recovered blood counts more rapidly”. Moreover, the “expansion of LKS+SLAM cells” value in the assay on LKS+ HSPCs is listed as “greater expansion”. In addition, the “cycling of LKS+ and LKS+SLAM cells” value in assay [1] was “prolonged cycling; also recorded: persisted in cycle”.

For the origin of these results see patent publication US9782452B2, “Methods for stimulating hematopoietic recovery by inhibiting TGFβ signaling” (Cornell University, priority 2011, dated 2017).
